# Earlier results in patent US20230181552A1, “EXTERNAL PREPARATION OF IMIDACLOPRID, PREPARATION METHOD AND USE THEREOF” (Qingdao Bolin Biological Technology Co., Ltd., priority 2021, published 2023).
# Legend:
# [1] = tested on: postsynaptic nicotinic acetylcholine receptors in the central nervous system of insects; settings: background statement
# [2] = tested on: nicotinic receptor sites of mammals; settings: background statement
# rabbits, mice and rats = settings: sublethal doses, systemic use
smiles,measurement,setting,value
"O=[N+]([O-])NC1=NCCN1Cc1ccc(Cl)nc1 [Imidacloprid, imidacloprid]",affinity for postsynaptic nicotinic acetylcholine receptors in the central nervous system of insects,[1],high affinity
same,affinity to nicotinic receptor sites of mammals,[2],weak affinity
same,pharmacological activity in mammals,"rabbits, mice and rats",little pharmacological activity
